Experimental data as given in EP4537846A2, “ANAVEX2-73 FOR THE TREATMENT OF ALZHEIMER S DISEASE” (priority 2017, dated 2018).

Assays:
[1] = test system: patients with Alzheimer's disease or presenting with the early signs of Alzheimer's disease; experiment: Single-patient treatment examples with intermittent dosing regimen; type: in vivo; conditions: person
From the text: The following examples show uses of ANAVEX2-73 in the treatment of patients with Alzheimer's disease or presenting with the early signs of Alzheimer's disease. The clinical determination that a patient may have Alzheimer's disease or is presenting with early signs of Alzheimer's disease is well known in the art. By way of example, the following references (and all publications cited herein) are incorporated by reference herein in their entireties: Dementia: From Diagnosis to Management - A Functional Approach 1st Edition, Psychology Press (February 17, 2009); Clinician's Guide to Psychological Assessment and Testing: With Forms and Templates for Effective Practice 1st Edition, Springer Publishing Company (September 18, 2012); Neurodegener. Dis. Manag. 5(3), 191-201 (2015); Artif. Intell. Med. 64(1), 59-74 (2015); Clin. Chem. 60(12), 1585-1586 (2014); and Metabolism 64(3 Suppl 1), S47-50 (2014).

[2] = test system: muscarinic acetylcholine receptors; conditions: 'is believed to bind'; cited from earlier work
healthy male volunteers = experiment: Randomized, placebo-controlled single ascending dose Phase 1 study; type: in vivo
Protocol: See Poster: A Phase 1 Dose Escalation Study to Investigate Safety, Tolerability, and Pharmacokinetics of ANAVEX2-73 in Healthy Male Subjects, CNS Summit 2014, Boca Raton, FL, by Ole Voges, Ingo Weigmann, Norman Bitterlich, Christoph Schindler and Christopher Missling. […] Based on the frequency and intensity of […] adverse events (TEAEs) the maximum tolerable dose (MTD) and the minimum intolerable dose (MID) were defined as 55 mg and 60 mg, respectively.

amyloid toxicity in mice = conditions: cited from earlier work
sigma-1 = sigma-1 (Homo sapiens, UniProt Q99720); conditions: sigma-1 receptor; 'is believed to bind'; cited from earlier work
[3] = test system: mild-to-moderate Alzheimer's disease patients; experiment: Phase 2a clinical trial: safety profile; type: in vivo; conditions: during Phase 2a trials
Protocol: (§1) The 36-day multicenter randomized clinical trial included both male and female mild-to-moderate Alzheimer's disease patients. ANAVEX2-73 was administered to twelve subjects as an add-on therapy to the donepezil current standard of care. ANAVEX2-73 was administered according to a two-period on-off-on cross-over dosing regimen in which the subjects were administered ANAVEX2-73 for 12 days (1st period) followed by a 12-day wash-out period before being administered ANAVEX2-73 for a second 12-day period (2nd period). Those subjects that were administered ANAVEX2-73 by oral administration during the 1st period were administered ANAVEX2-73 intravenously during the 2nd period, and vice versa. About half of the subjects were administered a 30 mg oral dosage form while the other half of subjects were administered a 50 mg oral dosage form. The intravenous dosage was either 3 mg or 5 mg, with about half of the subjects administered 3 mg and the other half administered 5 mg.
(§2) 5-9, were achieved without any dose optimization. […] An additional 20 subjects will be studied during the remainder of the Phase 2a clinical trial. Phase 2b clinical trials, involving an additional 26-week extension of daily oral dosage administration of ANAVEX2-73 is on-going.

[4] = test system: mild-to-moderate Alzheimer's disease patients; experiment: Phase 2a clinical trial: MMSE and Cogstate scales; type: in vivo; conditions: preliminary; twelve subjects, on-off-on regimen
Protocol: as §1, §2

[5] = test system: mild-to-moderate Alzheimer's disease patients; experiment: Phase 2a clinical trial: EEG peak alpha frequency (PAF); type: in vivo; conditions: twelve patients, day 36 vs baseline
Protocol: as §1, with “The intravenous dosage was either 3 mg or 5 mg, with about half of the subjects administered 3 mg and the other half administered 5 mg.” left out
Resting electroencephalographic (EEG) activity and event related potentials (EEG/ERP) were used to assess the cognitive effects of ANAVEX2-73 administration. Event related potentials (ERPs) are voltage changes time-locked to some physical or mental occurrence in ongoing electrical brain activity, as recorded by EEG. […]
Subjects were tested using a three-stimulus oddball paradigm. […] Electroencephalographic (EEG) activity was recorded from seven electrode sites (Fz, Cz, Pz, F3, P3, F4, and P4) of the international 10-20 system using a COGNISION™ Headset (Neuronetrix). […]

[6] = test system: mild-to-moderate Alzheimer's disease patients; experiment: Phase 2a clinical trial: event related potentials (ERP), auditory P300, three-stimulus oddball paradigm; type: in vivo
Protocol: as §1
Resting electroencephalographic (EEG) activity and event related potentials (EEG/ERP) were used to assess the cognitive effects of ANAVEX2-73 administration. Event related potentials (ERPs) are voltage changes time-locked to some physical or mental occurrence in ongoing electrical brain activity, as recorded by EEG. Event-related potentials (ERPs) provide a sensitive and reliable measure of the cognitive effects associated with early Alzheimer's disease. […] See for example, New Encycl. Neurosci., Oxford Academic Press, p. 13-18 (2009). For example, ERP tests on young presymptomatic individuals who carry mutations in the presenilin-1 and amyloid precursor protein genes show significant changes in ERP patterns years before the onset of behavioral symptoms and the development of Alzheimer's disease. See for example, Neurology 73, 1649-1655 (2009); Neurology 77, 469-475 (2011). […] For instance, ERP markers of cognitive function are increasingly altered in longitudinal studies on individuals with mild cognitive impairment (MCI) and Alzheimer's disease patients. See for example, Clin. Neurophysiol. 122, 1322-1326 (2011); Clin. Neurophysiol. 121, 194-199 (2010). […] See for example, Neurol. Neurochir. Pol. 35 Suppl 3, 37-43 (2001); Clin. Neuropharmacol. 25, 207-215 (2002); Neurosci. Biomed. Eng. 1, 34-39 (2013).
In particular, the auditory P300 component of the ERP has been widely applied in the study of age-related cognitive dysfunction because it is thought to reflect attentional and memory processes. Auditory P300 is a positive deflection occurring at about 300 ms from stimulus onset. It is generated by the activation of multiple neocortical and limbic regions. Auditory P300 has two functionally different components, an earlier P3a component that is maximal over frontocentral regions, and a later P3b component (hereafter "P300") that is maximal at the posterior scalp locations. See for example, Int. J. of Alzheimer's Dis. 2011, Article ID 653173, 1-7 (2011). P300 amplitude data collected as part of a double blind six month study for 15 patients with mild Alzheimer's disease on donepezil, as compared to a vitamin E baseline, has shown that P300 amplitude data correlates with ADAS-Cog and MMSE data for the same patients. See, Clin. Neuropharmacol. 25(4), 207-215 (2002).
Subjects were tested using a three-stimulus oddball paradigm. Stimuli comprised of standard tones (1000 Hz), target tones (2000 Hz) and unexpected distractor tones (white noise) that were played with probabilities of 0.75, 0.15, and 0.10. Tones were presented in pseudorandom order, so that target and distractor tones were never presented sequentially. Subjects were instructed to respond to the target stimuli by pressing a button with their dominant hand. For each test, between 300 and 400 stimuli were presented binaurally through insert ear phones at 70 dB volume. The tone duration for each stimulus was 100 ms with rise and fall times of 10 ms. The interstimulus interval was randomized between 1.5 and 2 s. […]

[7] = single ascending oral doses, healthy subjects

Chain of sigma-1 (Q99720 whole entry): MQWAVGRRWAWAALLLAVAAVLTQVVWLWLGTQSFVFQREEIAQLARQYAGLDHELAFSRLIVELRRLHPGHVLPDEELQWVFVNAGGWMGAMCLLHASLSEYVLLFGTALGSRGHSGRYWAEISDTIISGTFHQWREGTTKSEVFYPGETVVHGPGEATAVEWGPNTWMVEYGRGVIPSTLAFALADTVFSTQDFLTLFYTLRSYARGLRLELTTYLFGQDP

With `CN(C)CC1CCOC1(c1ccccc1)c1ccccc1.Cl` (stereo not drawn) [ANAVEX2-73, tetrahydro-N,N-dimethyl-2,2-diphenyl-3-furanmethanamine hydrochloride] the “loss of cognitive function” value ([1]; 3 mg intravenously, 5 days on / 20 days off, one year) was “stabilizes”, the “loss of cognitive function” value ([1]; 5 mg intravenously, 14 days on / 7 days off, one year) was “stabilizes” and the “loss of cognitive function” value ([1]; 30 mg oral, 10 days on / 10 days off, 6 months) was “stabilizes”. The “loss of cognitive function” value ([1]; 50 mg oral, 10 days on / 20 days off) was “stabilizes”, the “loss of cognitive function” value ([1]; 50 mg oral, 14 days on / 7 days off, 6 months) was “stabilized” and the affinities [2] was “low micromolar range”. The safety and tolerability (healthy male volunteers; ascending single oral doses of 1 mg, 10 mg, 30 mg, 40 mg, 50 mg, and 55 mg, healthy subjects) was “safe and well tolerated”, the observed adverse events (healthy male volunteers; at highest doses) was “moderate and reversible dizziness and headache” and the “minimum intolerable dose (MID)” value (healthy male volunteers; male, human, in vivo, po) was 60 mg. For the same molecule, the “Blood pressure and resting heart rate and other clinical parameters such as vital signs and 12-lead electrocardiogram (ECG)” value (healthy male volunteers; [7]) was “did not show any clinically relevant or dose-dependent changes”, the “QT interval and QTcB” value (healthy male volunteers; [7]) was “did not reveal any clinically significant changes” and the pharmacokinetics (healthy male volunteers; [7]) was “suitable for daily oral dosing”. For the same molecule, the serious adverse events (healthy male volunteers; [7]) was “No serious adverse events occurred”, the “maximum tolerable dose (MTD)” value (healthy male volunteers; single oral dose, healthy male volunteers) was 55 mg and the “Aβ25-35-induced P-Akt decrease and P-GSK-3β increase” value (amyloid toxicity in mice; Aβ25-35 model) was “blocked”. For the same molecule, the “Aβ25-35-induced endogenous Aβ1-42 seeding” value (amyloid toxicity in mice; Aβ25-35 model) was “decrease”, the “hyperphosphorylation of Tau on physiological epitopes (AT-8 antibody clone) and on pathological epitopes (AT-100 clone)” value (amyloid toxicity in mice; Aβ25-35 model, in the dose-range tested) was “attenuated” and the “oxidative stress, caspases induction, cellular loss and learning and memory deficits” value (amyloid toxicity in mice; mice one week after i.c.v. injection of oligomeric Aβ25-35) was “attenuating”. For the same molecule, the affinities (sigma-1) was “low micromolar range”, the safety profile [3] was “consistent with the Phase 1 data” and the “Mini Mental State Examination (MMSE) and Cogstate scale changes” value [4] was “consistent with the observed trend of the cognitive EEG/ERP effect”. The “peak alpha frequency (PAF)” value [5] was “higher than the baseline measurement of PAF”, the “patients with improved P300 signal” value ([6]; 10 out of the 12 patients studied) was 83% and the “Percentage Increase Over Baseline Data” value ([6]; P300 amplitude, Day 36 vs baseline, twelve patients, hydrochloride) was 38%. For the same molecule, the “percent P300 amplitude change compared to historical data for patients administered donepezil” value ([6]; after 1 month vs donepezil after 6 months) was “greater”, the “P300 amplitude change compared to historical data for patients administered donepezil” value ([6]; day 36 (1 month) vs donepezil at the 1 month time point) was “about four times higher” and the “False Alarms” value ([6]; target detection task, Day 36, twelve patients (baseline 2.67 ± 1.12)) was 0.64 ± 0.26%. For the same molecule, the “Button Press Accuracy” value ([6]; target detection task, Day 36, twelve patients (baseline 86.2 ± 4.47)) was 87.5 ± 4.01%, the “Median Reaction Time” value ([6]; target detection task, Day 36, twelve patients (baseline 593 ± 33.0)) was 534 ± 42.0 ms and the “P300 ERP wave data” value ([6]; twelve patients, day 36 vs baseline, on-off-on regimen (30 or 50 mg oral, 3 or 5 mg i.v.), add-on to donepezil) was “improved measured cognitive performance as compared to the baseline data”.
